Measured values: article PMC6753678, “Fueling Open Innovation for Malaria Transmission-Blocking Drugs: Hundreds of Molecules Targeting Early Parasite Mosquito Stages” (Frontiers in Microbiology, 2019)
Read-outs that look alike come from different tables or passages of the source.

Columns and labels:
HepG2 cells = assay: HepG2 cytotoxicity assay; conditions: for Pb ODA (this manuscript) HepG2 cytoxicity: HepG2 cytotoxicity listed with the Pb ODA data set (this manuscript); for IC50: read-out: HepG2 cytotoxicity assay IC50, dose response confirmation; for Unified cytotox: unified HepG2 value across the three screens
Experimental: Briefly, HepG2 cells were seeded onto compound-treated 384 well plates at a density of 2,500 cells per well in Minimal Essential Medium (MEM) plus 10% fetal bovine serum and 1% non-essential amino acids solution (NEAA). Cells were incubated with test compounds or 50 μM doxorubicin (positive) and DSMO (negative) controls at 37°C for 48 h in a humidified 5% CO2 atmosphere. […] Cell viability was then measured in a fluorescent plate reader and percent inhibition calculated with respect to positive and negative controls.

[1] = system: 3D7-strain P. falciparum asexual parasites; assay: P. falciparum asexual growth inhibition assay (Pf GIA); format: cell-based, Plasmodium falciparum; conditions: dose response confirmation; read-out: Pf asexual growth inhibition assays IC50
Experimental: The asexual activity of active compounds was tested in dose response with parasite lactate dehydrogenase (LDH) activity used as a readout of parasite viability as described in [Gamo et al. (2010)]. Briefly, 3D7-strain P. falciparum asexual parasites were diluted to 0.25% parasitemia, 2% hematocrit in culture medium composed of RPMI medium with 25 mM HEPES, 2% D-sucrose, 0.3% L-glutamine, 150 μM hypoxanthine plus 5% albumax. 25 μl of parasite inoculum was then dispensed into each well of a 384 well plate containing test compounds and positive (50 μM chloroquine) and negative (DMSO) controls. Plates were incubated for 72 h at 37°C in a 5% CO2, 5%O2, 90% N2 environment before being frozen at −70°C. Plates were then thawed and 70 μl of reaction mix (143 mM sodium L-lactate, 143 mM 3-acetyl pyridine adenine dinucleotide, […] Nitro Blue tetrazolium chloride, […] diaphorase (2.83 U/ml), 0.7% Tween 20, 100 mM Tris–HCl pH 8.0) was added to each well using a Multidrop Combi automated dispenser. Plates were shaken to mix and then absorbance at 650 nm was measured after 10 min incubation at room temperature. Percent inhibition of asexual growth was then calculated with respect to positive and negative controls. Data presented is the mean of three independent biological replicates.

[2] = system: P. berghei ookinete development; conditions: for % inhibition, Replicate A / % inhibition, Replicate B: primary screen at 1 μM
[3] = read-out: Pb ODA (this manuscript) IC50, P. berghei ookinete development assay, this manuscript
[4] = read-out: Pb Ookinete development assay IC50, dose response confirmation
[5] = read-out: Pb ODA IC50, this manuscript

Compound | Pb ODA (this manuscript) HepG2 cytoxicity (HepG2 cells) | IC50 (HepG2 cells) | IC50 [1] | Is compound selective in assay? Pb ODA active? [2] | % inhibition, Replicate A [2] | % inhibition, Replicate B [2] | IC50 [2, 3] | IC50 [2, 4] | Unified cytotox (HepG2 cells) | Is compound selective in assay? Pb ODA active? ([2]; 1: YES, 0: NO) | IC50 [2, 5]
O=C(c1cc(-c2ccco2)[nH]n1)N1CCN(S(=O)(=O)c2ccc(Cl)cc2)CC1 [TCMDC-124698] | 100.00 µM | 100000 nM | 563 nM | 1 (key: 1: YES; 0: NO) | 67.42% | 51.92% | 1120 nM | 1120 nM | – | – | –
O=C(c1cc(-c2ccco2)[nH]n1)N1CCN(S(=O)(=O)c2ccc(Br)cc2)CC1 [TCMDC-124699] | 100.00 µM | 100000 nM | 178 nM | 1 (key: 1: YES; 0: NO) | 66.14% | 59.38% | – | 1020 nM | – | – | –
O=C(c1cc(-c2cccs2)[nH]n1)N1CCN(S(=O)(=O)c2ccc(Cl)cc2)CC1 [TCMDC-124702] | 42.17 µM | 42200 nM | 27 nM | 0 (key: 1: YES; 0: NO) | 58.15% | 68.92% | 4340 nM | 4340 nM | – | – | –
CCn1c(CN2CCC(C)CC2)nc2cc(NC(=O)c3cccs3)ccc21 [TCMDC-124730] | – | 75900 nM | 182 nM | – | 78.95% | 101.97% | – | 350 nM | 75.86 µM | 1 (1: YES) | –
COc1cc(OC)c(NC(=O)C2c3ccccc3C(=O)N(CC(C)C)C2c2cccs2)cc1Cl (stereo not shown) [TCMDC-124760] | – | 100000 nM | 108 nM | – | 44.76% | 67.88% | – | 8610 nM | 100.00 µM | 1 (1: YES) | 8610 nM
COc1cccc(CC(=O)N2CCC(n3c(C)nc4ccc(F)cc43)CC2)c1 [TCMDC-124792] | – | 100000 nM | 208 nM | – | 59.80% | 82.85% | – | 794 nM | 100.00 µM | 1 (1: YES) | 790 nM
Cl.O=C(NC1CCN(CC2(c3ccc(Cl)cc3)CCCCC2)CC1)c1cc[nH]n1 [TCMDC-124828] | 35.89 µM | 35900 nM | 66 nM | 1 (key: 1: YES; 0: NO) | 40.92% | 76.27% | 1620 nM | 1620 nM | – | – | –
Cc1cc(C(=O)NC2CCN(CC3(c4ccccc4)CCCCC3)CC2)on1 [TCMDC-124832] | – | 13500 nM | < 0.2 nM | – | 102.69% | 91.64% | – | 613 nM | 13.49 µM | 1 (1: YES) | 610 nM
COc1coc(C(=O)NC2CCN(CC3(c4ccc(Cl)cc4)CCC3)CC2)c1OC [TCMDC-124835] | – | 52500 nM | 107 nM | – | 73.94% | 84.15% | – | 899 nM | 52.48 µM | 1 (1: YES) | 900 nM
O=C(NC1CCN(CC2(c3ccccc3F)CCCC2)CC1)c1ccn[nH]1 [TCMDC-124837] | 41.69 µM | 41700 nM | 456 nM | 1 (key: 1: YES; 0: NO) | 77.91% | 70.40% | 1490 nM | 1490 nM | – | – | –
Cc1ccc(C2(CN3CCC(NC(=O)c4[nH]ncc4Cl)CC3)CCCCC2)cc1 [TCMDC-124838] | 27.23 µM | 27200 nM | 0.45 nM | 1 (key: 1: YES; 0: NO) | 44.93% | 53.77% | 1430 nM | 1430 nM | – | – | –
Cc1ccc(C2(CN3CCC(NC(=O)c4ccn[nH]4)CC3)CCCCC2)cc1 [TCMDC-124839] | 43.15 µM | 43200 nM | 138 nM | 1 (key: 1: YES; 0: NO) | 81.24% | 59.00% | 970 nM | 968 nM | – | – | –
COc1ccc(NS(=O)(=O)c2cc(NC(=O)Cn3ccccc3=O)ccc2N2CCCCC2)cc1 [TCMDC-124874] | – | 100000 nM | 489 nM | – | 66.12% | 73.52% | – | 1270 nM | 100.00 µM | 1 (1: YES) | 1270 nM
CCc1c(C)nc(-n2nc(C)cc2NC(=O)C(CC)c2ccccc2)[nH]c1=O (stereo not shown) [TCMDC-124935] | 0.95 µM | 950 nM | 558 nM | 0 (key: 1: YES; 0: NO) | 47.36% | 55.92% | 8710 nM | 8710 nM | – | – | –
CCc1c(C)nc(-n2nc(C)cc2NC(=O)c2ccc(OC)cc2OC)[nH]c1=O [TCMDC-124937] | 10.00 µM | 10000 nM | 10 nM | 0 (key: 1: YES; 0: NO) | 65.69% | 36.83% | 1510 nM | 1510 nM | – | – | –
Cc1cc(=O)[nH]c(-n2nc(C)cc2NC(=O)C2(c3ccc(Cl)cc3)CCCC2)n1 [TCMDC-124943] | 3.31 µM | 3310 nM | 967 nM | 0 (key: 1: YES; 0: NO) | 55.02% | 44.00% | 1380 nM | 1380 nM | – | – | –
Cc1ccccc1-c1cc(=O)c2cc(NC(=O)c3cccs3)ccc2o1 [TCMDC-124947] | – | 100000 nM | 408 nM | – | 33.03% | 54.68% | – | 4150 nM | 100.00 µM | 1 (1: YES) | 4150 nM
CCN(CC)c1nc(N)c2c(N)nc3c(c2c1C#N)C(=O)CN3Cc1ccccc1 [TCMDC-125024] | – | 100000 nM | 38 nM | – | 101.60% | 105.52% | – | 618 nM | 100.00 µM | 1 (1: YES) | 620 nM
Cc1cc(C2NC(=O)c3ccccc3N2)c(C)n1-c1ccc2c(c1)OCO2 (stereo not shown) [TCMDC-125051] | – | 3470 nM | 51 nM | – | 87.88% | 98.84% | – | 854 nM | 3.47 µM | 0 (0: NO) | 850 nM
Cc1nc(NC2=NCN(CCCN3CCOCC3)CN2)nc2c(C)cccc12 [TCMDC-125086] | 100.00 µM | 100000 nM | 1820 nM | – | 51.18% | 62.28% | 11100 nM | 11100 nM | – | – | –
CCOC(=O)C1=C(C)NC2=C(C(=O)C(C(=O)OC)C(C)C2)C1c1cc(Br)c(OCC)c(OC)c1 (stereo not shown) [TCMDC-125139] | – | 100000 nM | 1420 nM | – | 3.38% | 50.55% | – | 9060 nM | 100.00 µM | 1 (1: YES) | 9060 nM
COc1cc(Nc2ccc3cc(S(=O)(=O)N4CCCCC4C)ccc3n2)cc(OC)c1OC (stereo not shown) [TCMDC-125163] | – | 24600 nM | 4260 nM | – | 58.55% | 48.73% | – | 1060 nM | 24.55 µM | 1 (1: YES) | 1060 nM
CCOc1cccc(C(=O)Nc2nonc2-c2ccc(OC)c(OC)c2)c1 [TCMDC-125179] | – | 6760 nM | < 0.2 nM | – | 52.92% | 35.19% | – | 7640 nM | 6.76 µM | 0 (0: NO) | 7640 nM
